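The compound was tested at five concentrations on cells cultured in 96-well plates, with a 48-hour exposure period. At the TGI there is no net growth.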
Tests used:
Assay in all cases: growth of human tumour cells (NCI), 48 h
786-0 renal = tested on: 786-0 renal
A498 renal = tested on: A498 renal
A549 NSCLC = tested on: A549 NSCLC
ACHN renal = tested on: ACHN renal
BT-549 breast = tested on: BT-549 breast
CAKI-1 renal = tested on: CAKI-1 renal
CCRF-CEM leukemia = tested on: CCRF-CEM leukemia
COLO 205 colon = tested on: COLO 205 colon
DU-145 prostate = tested on: DU-145 prostate
EKVX NSCLC = tested on: EKVX NSCLC
HCC-2998 colon = tested on: HCC-2998 colon
HCT-116 colon = tested on: HCT-116 colon
HL-60(TB) leukemia = tested on: HL-60(TB) leukemia
HOP-62 NSCLC = tested on: HOP-62 NSCLC
HOP-92 NSCLC = tested on: HOP-92 NSCLC
HS 578T breast = tested on: HS 578T breast
HT29 colon = tested on: HT29 colon
IGROV1 ovarian = tested on: IGROV1 ovarian
K-562 leukemia = tested on: K-562 leukemia
KM12 colon = tested on: KM12 colon
LOX IMVI melanoma = tested on: LOX IMVI melanoma
M14 melanoma = tested on: M14 melanoma
MALME-3M melanoma = tested on: MALME-3M melanoma
MCF7 breast = tested on: MCF7 breast
MDA-MB-231 breast = tested on: MDA-MB-231 breast
MDA-MB-435 = tested on: MDA-MB-435
MDA-N = tested on: MDA-N
MOLT-4 leukemia = tested on: MOLT-4 leukemia
NCI-H226 lung = tested on: NCI-H226 lung
NCI-H23 lung = tested on: NCI-H23 lung
NCI-H460 lung = tested on: NCI-H460 lung
NCI-H522 lung = tested on: NCI-H522 lung
NCI/ADR-RES ovarian = tested on: NCI/ADR-RES ovarian
OVCAR-3 ovarian = tested on: OVCAR-3 ovarian
OVCAR-4 ovarian = tested on: OVCAR-4 ovarian
OVCAR-8 ovarian = tested on: OVCAR-8 ovarian
RPMI-8226 leukemia = tested on: RPMI-8226 leukemia
RXF 393 renal = tested on: RXF 393 renal
SF-268 CNS = tested on: SF-268 CNS
SF-295 CNS = tested on: SF-295 CNS
SF-539 CNS = tested on: SF-539 CNS
SK-MEL-2 melanoma = tested on: SK-MEL-2 melanoma
SK-MEL-28 melanoma = tested on: SK-MEL-28 melanoma
SK-MEL-5 melanoma = tested on: SK-MEL-5 melanoma
SN12C renal = tested on: SN12C renal
SNB-19 CNS = tested on: SNB-19 CNS
SNB-75 CNS = tested on: SNB-75 CNS
SR leukemia = tested on: SR leukemia
SW-620 colon = tested on: SW-620 colon
T-47D breast = tested on: T-47D breast
TK-10 renal = tested on: TK-10 renal
U251 CNS = tested on: U251 CNS
UACC-257 melanoma = tested on: UACC-257 melanoma
UO-31 renal = tested on: UO-31 renal
HCT-15 colon = tested on: HCT-15 colon
OVCAR-5 ovarian = tested on: OVCAR-5 ovarian
PC-3 prostate = tested on: PC-3 prostate
SK-OV-3 ovarian = tested on: SK-OV-3 ovarian
UACC-62 melanoma = tested on: UACC-62 melanoma

Measured: TGI

CC(=O)Oc1ccc2oc(=O)cc(C)c2c1
not listed: HCT-15 colon | OVCAR-5 ovarian | PC-3 prostate | SK-OV-3 ovarian | UACC-62 melanoma
> 100 µM: all other assays above

Cc1ccc(Nc2nc(C)c(C(=O)CC(=O)C(=O)Nc3c(C)cccc3C(C)(C)C)s2)cc1
not listed: MALME-3M melanoma | SK-MEL-28 melanoma | SNB-75 CNS | SR leukemia
> 100 µM: all other assays above

— PubChem BioAssay (NCI)
